Key:
mitochondria = assay: QSLR factorial logistic regression of mitochondrial localization (affinity coefficients, cross-validated prediction); design: species or system human; settings: for αi^mito: influence of A group on mitochondrial localization, greater = stronger; for estimated A group affinity coefficient ai / estimated B group affinity coefficient bj: mitochondrial affinity; for estimated A group affinity coefficient ai: ±5 for groups always or never mitochondrial; for βj^mito: influence of B group on mitochondrial localization
Text: The first column and first row contain the A group and B group labels. The second column and second row contain the estimated A group and B group affinity coefficients (ai and bj respectively). The interior of the table contains the value sij=ai+bj for each compound (where positive values of sij indicate predicted localization to mitochondria, and negative values of sij indicate predicted localization to a non-mitochondrial compartment). The subscript m indicates experimentally determined mitochondrial localization. The subscript o indicates experimentally determined non-mitochondrial localization. The darkened boxes indicate correctly predicted mitochondrial localizations under cross-validation.
Based on this matrix, factorial logistic regression (See, A. Agresti, Categorical Data Analysis, Wiley [2002]) was used to calculate mitochondrial affinity coefficients (ai and bj) for each A and B moiety. (Table 1). Since it is not necessary to observe all possible pairings between A and B building blocks to estimate the affinity coefficients, the QSLR approach can predict localization of unmeasured styryl molecules based on a minimal set of experimentally-determined localizations (see Methods). The methods of the present invention allow assessment of predictivity using the cross-validation technique by holding out one compound and fitting the affinity coefficients using the remaining compounds, predictivity can be assessed by comparing the actual localization of the held-out compound to its predicted localization. Repeating this for every measured compound in the library yields an error rate for the procedure.
Briefly, this technique assigns quantitative scores to each A group (αi^mito) and to each B group (βj^mito), in such a way that αi^mito+βj^mito is positive for compounds with mitochondrial localization, and is negative for compounds lacking mitochondrial localization. […] In additional embodiments, same analysis can be applied to organelles other than mitochondria, provided there are a sufficient number of localizations to specific non-mitochondrial organelles in the combinatorial library of interest for reliable statistical calculations.
In certain embodiments, the predictive performance of the above method was assessed using a cross-validation approach by calculating the proportion of all compounds that are correctly predicted. For cross-validation, each styryl product was set aside in sequence, and the factorial logistic model was fit to the remaining data. Then the resulting A and B scores for the held-out compound were summed. If the sum was positive, the held-out compound was predicted to be mitochondrial, while if the sum was negative, the held-out compound was predicted to be non-mitochondrial. […] The baseline performance of the method scored 104 correct out of 145, or 72%. This number is highly statistically significant compared to random guessing (p-value ˜10^−7). Thus, across the entire library, A and B moieties appear to contribute to localization in an independent, additive fashion.
In some embodiments, subcellular localization data were converted to binary (0/1) values by assigning a value Gij=1 if compound i,j localized to mitochondria (even if it localized to other […] as well), and assigning Gij=0 if compound i,j localized exclusively to any non-mitochondrial cellular structure. Compounds with no localization were omitted from this part of the analysis. The αi and βj coefficients for A or B groups that are always observed to localize to mitochondria, or that never localize to mitochondria, were set to +/−5, respectively. The binary localization data were analyzed using factorial logistic regression. […]

[1] = Additive decomposition of peak excitation and emission wavelengths (model coefficients of A and B groups); settings: for αi^em: influence of A group on peak emission wavelength; for αi^em / αi^ex: A group 1 as baseline; for αi^ex: influence of A group on peak excitation wavelength; for βj^em: influence of B group on peak emission wavelength; for βj^em / βj^ex: B group 1 as baseline; for βj^ex: influence of B group on peak excitation wavelength
Text: The chemical structure of the styryl library is illustrated in FIG. 3. […] Initial analysis focused on measurements of peak emission and excitation wavelength obtained for all styryl products showing a single, localized peak (there were 256 such compounds for emission wavelength, and 193 compounds for excitation wavelength). […] The wavelength for the styryl compound formed by joining A group i with B group j is denoted as λij (or more specifically, λij^ex for excitation wavelength and λij^em for emission wavelength). The additive model λij=ai+βj+εij was fit to the data using least squares yielding parameters αi^ex, αi^em, βj^ex, and βj^em that quantify the influence of each A and B group on the spectrum of the styryl product. […] (FIGS. 8A-8B). […] The predictions were made ignoring interactions between the two functional moieties in the styryl compound. The predicted values were obtained without bias, by holding out the data point to be predicted when training the model.
In preferred embodiments, using the cross-validation approach disclosed herein, each compound was held out in sequence, the model was trained using the remaining compounds, then the wavelength value for the held-out compound was predicted based on the resulting fitted model. This process produced correlations between measured and predicted values of ρ^em=0.78 (emission) and ρ^ex=0.69 (excitation).
Based on this analysis, the contribution of the A and B functional groups to the fluorescence of the styryl product is quantified using the fitted coefficients αi^ex, βj^ex, […], and βj^em. Since these coefficients are on a scale without origin, in some embodiments, the invention uses the first A group and B group as a baseline, so […], β1^ex=0, and so on. Table 3 contains the model coefficients of all A and B groups for peak excitation and emission wavelength.
Greater values of αi^ex, αi^em, βj^ex, and βj^em indicate greater peak wavelength. Greater values of αi^mito and […] indicate stronger mitochondrial localization. A groups 40 and 41 were not screened for localization. A groups 2, 29, and 33 only formed fluorescent products with a single B group, so were not included in the spectral analysis.
In some embodiments, the wavelength values for peak excitation and emission were fit to the additive model λij=αi+βj+εij, where εij denotes error that is made as small as possible in the fitting process. Using least squares to minimize the function [formula] over all compounds having experimental data yields coefficient estimates αi for each A group and βj for each B group. One set of coefficient estimates is obtained for the excitation values and another set is obtained for the emission values. To predict the wavelength of a new compound formed from A and B groups i* and j* the sum αi*+βj* is used.
In some embodiments, for both the spectral and localization analysis, cross-validation was used to obtain unbiased estimates of the prediction performance. Each compound was held out in sequence, and the coefficients αi and βj were fit to the remaining compounds. These values were then used to form a prediction for the held out compound, then the predicted and experimental values were compared to obtain a measure of the accuracy of prediction. Since the wavelength values are on a continuous scale, the predicted values were compared to the experimental values using Pearson correlation coefficients. The localization values are dichotomous, so the proportion of matching predictions was used to compare predicted and experimental localization values.

| βj^em [1] [nm] | βj^ex [1] [nm] | SMILES | αi^mito (mitochondria) | estimated A group affinity coefficient ai (mitochondria) | influence of group on peak wavelength [1] | αi^em [1] [nm] | αi^ex [1] [nm] | βj^mito (mitochondria) | estimated B group affinity coefficient bj (mitochondria) |
| --- | --- | --- | --- | --- | --- | --- | --- | --- | --- |
| −2.7 | −12.7 | Cc1cccc[n+]1C.[I-] [B group 3] |  |  |  |  |  | 4.2 | 4.2 |
| −23.2 | −32.3 | Cc1ccc[n+](C)c1C.[I-] [B group 4] |  |  |  |  |  | 3.0 | 3.0 |
| −7.6 | −1.6 | CCc1ccc(C)[n+](C)c1.[I-] [B group 5] |  |  |  |  |  | 2.2 | 2.3 |
| 64.8 | 53.0 | Cc1ccc2ccccc2[n+]1C.[I-] [B group 8] |  |  | strongly contribute towards the red end of the spectrum |  |  | 0.4 | 0.4 |
| −4.1 | −4.2 | Cc1cc[n+](C)c(C)c1.[I-] [B group 11] |  |  |  |  |  | 2.1 | 2.1 |
| −1.7 | −10.2 | Cc1cccc(C)[n+]1C.[I-] [B group 12] |  |  |  |  |  | 2.7 | 2.7 |
| −1.8 | −1.1 | Cc1cc(C)[n+](C)c(C)c1.[I-] [B group 13] |  |  |  |  |  | 2.5 | 2.5 |

Continued, compound first:

| SMILES | βj^em [1] [nm] | βj^ex [1] [nm] | αi^mito (mitochondria) | estimated A group affinity coefficient ai (mitochondria) | influence of group on peak wavelength [1] | αi^em [1] [nm] | αi^ex [1] [nm] | βj^mito (mitochondria) | estimated B group affinity coefficient bj (mitochondria) |
| --- | --- | --- | --- | --- | --- | --- | --- | --- | --- |
| CN(C)c1ccc(C=CC=O)cc1 [A group 37] |  |  | −0.9 | −0.9 | strongly contribute towards the red end of the spectrum | 122.1 | 82.9 |  |  |
| COc1cc(OC)c(OC)cc1C=O [A group 38] |  |  | −1.3 | −1.3 |  | 22.2 | −15.6 |  |  |
| O=Cc1ccc2c(c1)OCO2 [A group 39] |  |  | 0.0 | 0.0 |  | −25.3 | −28.3 |  |  |
| Cc1cc[n+](C)cc1.[I-] [B group 1] | 0.0 | 0.0 |  |  |  |  |  | 1.9 | 1.9 |
| Cc1cc[n+](C23CC4CC(CC(C4)C2)C3)cc1.[Br-] [B group 2] | 4.3 | 4.9 |  |  |  |  |  | 2.0 | 2.0 |
| Cc1cc[n+](C)c(Br)c1.[I-] [B group 6] | 3.5 | 27.7 |  |  |  |  |  | −5.0 | −5.0 |
| Cc1cc[n+](C)c2ccccc12.[I-] [B group 7] | 63.7 | 29.6 |  |  | strongly contribute towards the red end of the spectrum |  |  | 3.5 | 3.5 |
| COc1ccc2c(ccc(C)[n+]2C)c1.[I-] [B group 9] | 35.0 | −0.1 |  |  | strongly contribute towards the red end of the spectrum |  |  | −2.0 | −2.0 |
| Cc1ccnc(-c2cc(C)cc[n+]2C)c1.[I-] [B group 10] | 19.8 | 1.6 |  |  |  |  |  | 0.8 | 0.8 |
| Cc1cnc2c(ccc3c(C)c(C)c[n+](C)c32)c1C.[I-] [B group 14] | 57.9 | 100.6 |  |  | strongly contribute towards the red end of the spectrum |  |  | 0.0 | 0.1 |

Source: US20070111251A1, “Chemical address tags” (priority 2003, published 2007)
